Test results published in patent US8193195B2, “Polymorphic forms of 1-'4-(5-cyanoindol-3-yl) butyl-4-(2-carbamoylbenzofuran-5-yl) piperazine hydrochloride” (Merck Patentgesellschaft, priority 2001, dated 2012).
Where two headings read alike, the source gives them in different places.

How the values were obtained:
[1] = Solubility via potentiometric titration (pSOL solubility profiler); type: physicochemical; settings: for Solubility data: hydrochloride; for solubility: water, thermodynamic from solid
Description: Solubility data of Forms II, III, IV, V, VI and VIII are measured according to Alex Avdeef et al, Pharm. Pharmacol. Commun.
The pSOLTM solubility profiler, automatically collects potentiometric data, calculates the pH-solubility profiles, and prints the values at 0.1 pH unit intervals. Intrinsic solubilities in the milli-, micro- and nanogram levels can be determined. Also presented are two new concepts, the Flux Factor Profile and Dose Limit Profile. Both concepts follow the guidelines consistent with the BioPharmaceutics Classification Scheme.

[2] = Thermodynamic stability of the forms, energy/temperature diagram (FIG. 27); type: physicochemical
Text: FIG. 27 is an energy/temperature diagram of Forms III, IV and VII

Cl.N#Cc1ccc2[nH]cc(CCCCN3CCN(c4ccc5oc(C(N)=O)cc5c4)CC3)c2c1 [Form I, 1-[4-(5-cyanoindol-3-yl)butyl]-4-(2-carbamoyl-benzofuran-5-yl)-piperazine hydrochloride]
Solubility data ([1]; potentiometric titration according to Avdeef et al., listed as I): 0.08 µg/mL

Cl.N#Cc1ccc2[nH]cc(CCCCN3CCN(c4ccc5oc(C(N)=O)cc5c4)CC3)c2c1 [Form II, 1-[4-(5-cyanoindol-3-yl)butyl]-4-(2-carbamoyl-benzofuran-5-yl)-piperazine hydrochloride]
Solubility data ([1]; potentiometric titration according to Avdeef et al., listed as II): 0.03 µg/mL

Cl.N#Cc1ccc2[nH]cc(CCCCN3CCN(c4ccc5oc(C(N)=O)cc5c4)CC3)c2c1 [Form III, 1-[4-(5-cyanoindol-3-yl)butyl]-4-(2-carbamoyl-benzofuran-5-yl)-piperazine hydrochloride]
Solubility data ([1]; potentiometric titration according to Avdeef et al., listed as III): 0.12 µg/mL | relative (thermodynamic) stability of the form at room temperature ([2]; room temperature): the most stable form at room temperature

Cl.N#Cc1ccc2[nH]cc(CCCCN3CCN(c4ccc5oc(C(N)=O)cc5c4)CC3)c2c1 [Form IV, 1-[4-(5-cyanoindol-3-yl)butyl]-4-(2-carbamoyl-benzofuran-5-yl)-piperazine hydrochloride]
Solubility data ([1]; potentiometric titration according to Avdeef et al., listed as IV): 0.33 µg/mL | solubility ([1]; in water, read-out: solubility in water): 0.328 µg/mL | relative stability of the form at higher temperatures ([2]; higher temperatures, e.g. >100° C.): the most stable form at higher temperatures

Cl.N#Cc1ccc2[nH]cc(CCCCN3CCN(c4ccc5oc(C(N)=O)cc5c4)CC3)c2c1.O [Form V, 1-[4-(5-cyanoindol-3-yl)butyl]-4-(2-carbamoyl-benzofuran-5-yl)-piperazine hydrochloride monohydrate]
solubility ([1]; potentiometric titration according to Avdeef et al., read-out: Solubility data): 0.18 µg/mL

Cl.N#Cc1ccc2[nH]cc(CCCCN3CCN(c4ccc5oc(C(N)=O)cc5c4)CC3)c2c1 [Form VI, 1-[4-(5-cyanoindol-3-yl)butyl]-4-(2-carbamoyl-benzofuran-5-yl)-piperazine hydrochloride]
Solubility data ([1]; potentiometric titration according to Avdeef et al., listed as VI): 0.23 µg/mL
